Test systems include SF-268; MOLT-4; TK-10; A498; Malme-3M; NCI-H522; K562; PC-3; HCT-15; MDA-MB-435; OVCAR-8; DU-145; Hs-578T; 786-0; NCI-H226; OVCAR-3; CAKI-1; SK-MEL-2; HCC 2998; SF-539.
Holding throughout (experiment): DTP human tumour cell line panel, 48 h

This note sets out measurements from ChEMBL document CHEMBL1201862, “PubChem BioAssay data set” (2004).

Structures are written as SMILES.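 Dose response: 5 concentrations. Exposure: 48 h. Format: 96-well plates. Endpoint: linear interpolation; highest concentration if not reached. GI50 marks 50% less growth.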 Active and inactive are the calls of the source. Rule as the data show it: active = GI50 up to about 1.1 µM and inactive = higher.

For `COc1cccc([C@H]2CC(=O)c3cc4c(cc3N2)OCO4)c1`, the GI50 in the test with SF-268 is 0.646 µM (active); with MOLT-4, 0.938 µM (active); in the test with TK-10, 0.979 µM (active); with A498 it was 0.75 µM (active); in the test on Malme-3M it was 0.671 µM (active); with NCI-H522, 0.238 µM (active). Further, the GI50 in the test with K562 was 1.3 µM (inactive); in the test on PC-3, 0.275 µM (active); in the test on HCT-15, 0.341 µM; with MDA-MB-435 it was 0.0743 µM (active); in the test with OVCAR-8 it was 0.401 µM (active); in the test with DU-145, 0.397 µM (active). In addition, the GI50 in the test on Hs-578T was 0.216 µM (active); in the test on 786-0, 0.418 µM (active); in the test with NCI-H226, 0.263 µM (active); in the test on OVCAR-3 it was 0.598 µM (active); with CAKI-1, 0.384 µM (active); in the test with SK-MEL-2, 0.578 µM (active). For the same compound, the GI50 was 0.434 µM (active) with HCC 2998 and 0.274 µM (active) with SF-539.
Consider `CCOc1cc2c(cc1O)C(=O)C[C@@H]1[C@@H]2CC[C@]2(C)[C@@H](O)CC[C@@H]12`, for which the GI50 was 0.308 µM (active) in the test on SF-268; 0.172 µM (active) in the test on MOLT-4; > 13.4 µM (inactive) in the test on TK-10; 0.269 µM (active) with A498; 0.294 µM (active) in the test with Malme-3M; 0.0508 µM (active) in the test with NCI-H522. The GI50 in the test with K562 was 0.0362 µM (active); in the test on PC-3 it was 2.71 µM (inactive); in the test with HCT-15, 0.0556 µM; in the test with MDA-MB-435 it was 0.0197 µM (active); in the test on OVCAR-8 it was 0.321 µM (active); with DU-145, 0.337 µM (active). Further, the GI50 was 0.163 µM (active) with Hs-578T; 0.177 µM (active) in the test on 786-0; 0.561 µM (active) in the test with NCI-H226; 0.092 µM (active) in the test on OVCAR-3; 0.164 µM (active) with CAKI-1; 4.85 µM (inactive) in the test on SK-MEL-2. The GI50 was 1.36 µM (inactive) in the test with HCC 2998 and 0.155 µM (active) in the test on SF-539.
In the case of `NC(=O)c1nnc2cc(F)ccc2c1N`, the GI50 with SF-268 was > 100 µM (inactive); in the test with MOLT-4 it was > 100 µM (inactive); in the test on TK-10, 76.2 µM (inactive); in the test on A498 it was 91.6 µM (inactive); in the test with Malme-3M it was > 100 µM (inactive); with NCI-H522, 46.3 µM (inactive). The GI50 in the test with K562 is > 100 µM (inactive); in the test with PC-3, > 100 µM (inactive); in the test with HCT-15 it was above 100 µM; in the test with MDA-MB-435, > 100 µM (inactive); with OVCAR-8, > 100 µM (inactive); with DU-145 it was > 100 µM (inactive). Moreover, the GI50 was > 100 µM (inactive) with Hs-578T; > 100 µM (inactive) with 786-0; 58.2 µM (inactive) in the test with NCI-H226; > 100 µM (inactive) in the test on OVCAR-3; 91.2 µM (inactive) with CAKI-1; > 100 µM (inactive) in the test with SK-MEL-2. Also, the GI50 with HCC 2998 and in the test with SF-539 was > 100 µM (inactive) each time.
With `CC(C)Oc1c(N(Cc2ccccc2)c2ccccc2C2SCCCS2)c(=O)c1=O`, the GI50 is 5.96 µM (inactive) with SF-268; 3.63 µM (inactive) in the test on MOLT-4; 8.63 µM (inactive) in the test on TK-10; 6.9 µM (inactive) in the test on A498; 2.9 µM (inactive) in the test with Malme-3M; 1.88 µM (inactive) in the test on NCI-H522. The GI50 with K562 was 4.05 µM (inactive); with PC-3, 3.29 µM (inactive); in the test with HCT-15 it was 3.71 µM; in the test on MDA-MB-435 it was 2.74 µM (inactive); with OVCAR-8 it was 3.61 µM (inactive); with DU-145 it was 4.18 µM (inactive). The GI50 was 3.44 µM (inactive) in the test on Hs-578T; 4.41 µM (inactive) in the test on 786-0; 6.05 µM (inactive) with NCI-H226; 2.33 µM (inactive) in the test on OVCAR-3; 5.79 µM (inactive) with CAKI-1; 3.32 µM (inactive) in the test with SK-MEL-2. In addition, the GI50 in the test with HCC 2998 is 3.5 µM (inactive); in the test on SF-539, 2.76 µM (inactive).
As for `C[C@@H](NC(=O)Cn1c(Cl)nc2ccccc21)c1ccccc1`, the GI50 in the test with SF-268 was > 100 µM (inactive); with MOLT-4 it was > 100 µM (inactive); with TK-10, > 100 µM (inactive); in the test with A498 it was > 100 µM (inactive); in the test on Malme-3M it was > 100 µM (inactive); in the test on NCI-H522, 38.2 µM (inactive). Further, the GI50 in the test with K562 is > 100 µM (inactive); in the test with PC-3, > 100 µM (inactive); with HCT-15, above 100 µM; in the test on MDA-MB-435, > 100 µM (inactive); with OVCAR-8 it was > 100 µM (inactive); with DU-145 it was > 100 µM (inactive). Further, the GI50 was 51.6 µM (inactive) in the test with Hs-578T; > 100 µM (inactive) in the test on 786-0; > 100 µM (inactive) in the test with NCI-H226; > 100 µM (inactive) in the test on OVCAR-3; > 100 µM (inactive) with CAKI-1; > 100 µM (inactive) in the test on SK-MEL-2. The GI50 in the test with HCC 2998 and in the test with SF-539 was > 100 µM (inactive) throughout.
Take `O=C1Nc2ccc(Br)cc2/C1=N/c1ccc2c(c1)OCO2`: the GI50 in the test with SF-268 was 35.2 µM (inactive); with MOLT-4 it was 16.6 µM (inactive); in the test on TK-10 it was 27.3 µM (inactive); in the test with A498, 30.6 µM (inactive); in the test with Malme-3M it was 18.7 µM (inactive); with NCI-H522, 19.1 µM (inactive). In addition, the GI50 in the test with K562 is 24.4 µM (inactive); with PC-3, 16.3 µM (inactive); in the test with HCT-15, 19.8 µM; with MDA-MB-435, 9.35 µM (inactive); with OVCAR-8 it was 32.5 µM (inactive); in the test on DU-145, 34 µM (inactive). Moreover, the GI50 with Hs-578T was 30.5 µM (inactive); in the test with 786-0 it was 21.6 µM (inactive); with NCI-H226 it was 24.3 µM (inactive); in the test with OVCAR-3 it was 22.1 µM (inactive); in the test on CAKI-1, 20.3 µM (inactive); with SK-MEL-2, 17.7 µM (inactive). The GI50 with HCC 2998 is 15.7 µM (inactive); in the test with SF-539, 18.5 µM (inactive).
Turning to `O/N=C\c1c2c(cc3c1CCC3)CCC2`, the GI50 with SF-268 was > 100 µM (inactive); with MOLT-4, 25 µM (inactive); in the test on TK-10, > 100 µM (inactive); with A498, 34.1 µM (inactive); in the test with Malme-3M, > 100 µM (inactive); in the test on NCI-H522 it was > 100 µM (inactive). Besides, the GI50 in the test with K562 is > 100 µM (inactive); with PC-3, > 100 µM (inactive); in the test with HCT-15 it was above 100 µM; in the test with MDA-MB-435, > 100 µM (inactive); with OVCAR-8 it was > 100 µM (inactive); with DU-145 it was > 100 µM (inactive). The GI50 in the test on Hs-578T, with 786-0, with NCI-H226, in the test on OVCAR-3, in the test with CAKI-1 and with SK-MEL-2 was > 100 µM (inactive) throughout. Also, the GI50 in the test on HCC 2998 and in the test with SF-539 was > 100 µM (inactive) throughout.
For `N#C[BH2-][n+]1ccc(C(=O)NNCC(F)(F)F)cc1`, the GI50 in the test on SF-268, in the test with MOLT-4, with TK-10, in the test with A498, with Malme-3M and in the test with NCI-H522 was > 100 µM (inactive) each time. The GI50 with K562 is > 100 µM (inactive); in the test with PC-3, > 100 µM (inactive); with HCT-15, above 100 µM; in the test with MDA-MB-435 it was > 100 µM (inactive); in the test with OVCAR-8, > 100 µM (inactive); in the test on DU-145, > 100 µM (inactive). Further, the GI50 in the test on Hs-578T, in the test with 786-0, with NCI-H226, in the test with OVCAR-3, in the test with CAKI-1 and in the test on SK-MEL-2 was > 100 µM (inactive) in each case. The GI50 in the test on HCC 2998 and with SF-539 was > 100 µM (inactive) each time.
With `N#CSc1ccc(S(N)(=O)=O)cc1`, the GI50 is > 100 µM (inactive) with SF-268; 1 µM (active) in the test on MOLT-4; 75.5 µM (inactive) with TK-10; > 100 µM (inactive) with A498; 83.6 µM (inactive) with Malme-3M; 10.7 µM (inactive) with NCI-H522. In addition, the GI50 in the test on K562 was 35.2 µM (inactive); in the test with PC-3, 48 µM (inactive); with HCT-15, 40.4 µM; in the test with MDA-MB-435, 33.3 µM (inactive); in the test with OVCAR-8, 44.8 µM (inactive); with DU-145 it was > 100 µM (inactive). In addition, the GI50 in the test with Hs-578T is > 100 µM (inactive); in the test on 786-0 it was 26.1 µM (inactive); in the test with NCI-H226, > 100 µM (inactive); with OVCAR-3, 52.2 µM (inactive); in the test on CAKI-1, 56.5 µM (inactive); in the test with SK-MEL-2, 46.5 µM (inactive). In addition, the GI50 with HCC 2998 was > 100 µM (inactive); with SF-539 it was 25.1 µM (inactive).
`OC1(c2ccc(Cl)cc2)c2ccccc2C2=NCc3ccccc3CN21` (stereo not given): the GI50 with SF-268 is 12.4 µM (inactive); in the test on MOLT-4 it was 3.37 µM (inactive); with TK-10, 14.6 µM (inactive); with A498, 13.6 µM (inactive); with Malme-3M it was 13.9 µM (inactive); in the test on NCI-H522, 14.1 µM (inactive). The GI50 with K562 was 2.68 µM (inactive); with PC-3, 4.74 µM (inactive); with HCT-15, 7.14 µM; with MDA-MB-435, 7.45 µM (inactive); with OVCAR-8, 9.55 µM (inactive); in the test with DU-145 it was 17.9 µM (inactive). Moreover, the GI50 is 14.9 µM (inactive) in the test on Hs-578T; 5.45 µM (inactive) in the test on 786-0; 5.47 µM (inactive) in the test on NCI-H226; 1.7 µM (inactive) in the test on OVCAR-3; 12.3 µM (inactive) in the test with CAKI-1; 1.2 µM (inactive) in the test with SK-MEL-2. The GI50 was 2.18 µM (inactive) in the test on HCC 2998 and 7.13 µM (inactive) in the test on SF-539.
